Assay [1] has as its system IL-17A secretion in activated PBMCs. Put plainly: IL-17A secretion in activated PBMCs. The format is cell-based, human. The note with it: for IC50: human PBMCs stimulated with CD3/CD28 Dynabeads for 48 h, absolute IC50. Summed up:
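Human PBMCs from healthy donors, 40,000 cells/well, were preincubated 30 min with compound in 10-point 5-fold dilutions (0.1% DMSO), then stimulated 48 h at 37° C with CD3/CD28 beads (1:1). Supernatant IL-17A was read by bead immunoassay on a flow cytometer. Inhibition was normalized to activated DMSO (top) and GNE09461 10 μM (basal).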

The next assay has as its system plasma IL-17A. Put plainly: In vivo IL-17A induction in anti-CD3 model in mice. To be noted: oral gavage twice daily day 0 to day 3, C57BL/6JRj mice. Here is the method:
Male C57BL/6JRj mice (7 week old) were purchased from Janvier Labs and housed at the animal facilities of Almirall throughout the study. Animals were allowed to condition for 5 days in their new environment at 22° C.±2° C., 55%±10% relative humidity and 12 h: 12 h light:dark cycles. Animals were housed in polycarbonate cages, with free access to water and non-purified stock diet (2014 Teklad Global 14% Protein Rodent Maintenance Diet, Envigo) during the full course of the studies. Care of animals was undertaken in compliance with the European Committee Directive 2010/63/EU, and the Catalan and Spanish law. All procedures were performed according to the ARRIVE guidelines (Animal Research: Reporting of In Vivo Experiments) and with approval from the Animal Experimentation Ethical Committee of Almirall (Barcelona, Spain).
Mice were injected intraperitoneally with 7.5 μg of anti-CD3e (Clone 145-2C11 from Pharmingen BD) at 0 h (day 0) and […] (day 3) time-points. The non-induced-group were injected with PBS instead of anti-CD3e. At study completion (4 h after anti-CD3e injection), animals were anaesthetized with isofluorane (Baxter) and 0.5-1 mL blood samples were drawn by intracardiac puncture in heparinized tubes. Plasma samples were stored at −80° C. for subsequent analysis.
Test compounds were freshly suspended in sterile 0.5% methylcellulose 0.1% tween-80 solution (10 mL/kg body weight). […]
Plasma levels of IL-17A were measured by ELISA (R&D Systems) according to the manufacturer's instruction. Results were calculated as the percentage of reduction of plasma IL-17A versus the difference between non-induced and anti-CD3e induced groups through the formula: inhibition=100*[1−[(x−mean non-induced)/(mean control vehicle−mean non-induced)]]. The IL-17A inhibition for each treatment can be expressed as the mean for each treatment group±S.E.M. Statistical analysis of data were conducted with one-way ANOVA followed by Dunnett's multiple comparisons test when appropriate. […]

The target of assay [2] is T1, RORγ ligand-binding domain fused to Gal4 (Homo sapiens, UniProt P51449).
T1 construct: Gal4 (galactose-responsive transcription factor); expressed in transfected cells; host or cells: HEK293
T1 sequence (P51449 269-508 limits assumed): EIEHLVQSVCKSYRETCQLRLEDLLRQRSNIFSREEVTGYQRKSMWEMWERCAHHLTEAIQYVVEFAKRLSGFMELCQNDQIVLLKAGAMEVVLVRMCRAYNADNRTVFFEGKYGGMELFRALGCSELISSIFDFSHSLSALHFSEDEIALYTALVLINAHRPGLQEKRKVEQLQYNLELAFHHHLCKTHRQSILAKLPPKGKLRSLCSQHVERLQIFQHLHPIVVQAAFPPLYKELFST
To be noted: cited from earlier work.

In assay [3] the target is T1, RORγ ligand-binding domain fused to Gal4. Put plainly: RORγ Reporter Assay (Gal4). The format is cell-based. In short, it runs like this:
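HEK293 cells transiently co-transfected with the Gal4-fused RORγ LBD and a UAS-luciferase reporter were exposed to compounds for 24 h at 37 °C (0.1% DMSO final). Luminescence was read, and percent reduction of RORγ activity was calculated relative to vehicle-average RLU.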
(In general: In a reporter assay the amount or activity of a reporter protein is the signal.)

[4] abbreviates: comparison compounds of WO2016020288, source marked WO2016020288.
Where [5] appears, read: RORγ Gal4 assay EC50, Examples in <500 range, Examples of WO2016020288, based on % inhibition at 0.1 and/or 1 uM (Table 5 c, footnote 5).
Setting [6] is: comparison examples of WO2016020288 (footnote 1).
[7] abbreviates: RORγ Gal4 assay EC50, Examples in <100 range, Examples of WO2016020288, based on % inhibition at 0.1 and/or 1 uM (Table 5 c, footnote 4).
[8] abbreviates: HEK293 cells co-transfected with RORγ LBD-Gal4 and luciferase reporter, 24 h incubation, absolute EC50, read-out: EC50.
The mark [9] stands for this setting: compounds of the present disclosure, value from Table 2 herein, read-out: Gal4 assay EC50.

Where two headings read alike, the source gives them in different places.

In general, IC50 refers to the point on the concentration scale where inhibition reaches its midpoint. A lower IC50 goes with higher potency. `CCN(Cc1ccc(C(F)(F)F)cc1F)c1ncnc(NC[C@]2(O)CCN(CC(N)=O)C[C@H]2O)c1F` (single isomer, unassigned) [Example D5-03-1-1]: the IC50 in assay [1] (Homo sapiens, PBMC, 48 h) is 3 nM. For the same molecule, the “Inhibition of IL-17A (%) at 3 mg/kg” value in the assay on plasma IL-17A is listed as 93%.
In general, EC50 refers to the concentration giving half of the maximal effect. Consider `NC(=O)CC1CC(CNc2ncnc(N(Cc3ccc(C(F)(F)F)cc3)C3CC3)c2F)C1` (stereo not drawn) [Example A95, reference compound], for which the 50% effective concentration (EC50) in assay [2] (setting [4]) and in assay [3] (setting [5]) was less than 500 nM in each case.
As for `NC(=O)Cc1ccc(CNc2ncnc(N(Cc3cccc(OC(F)(F)F)c3)C3CC3)c2F)cc1` [Example A102, reference compound], the results for the EC50 in assay [2] (setting [6]), in assay [3] (setting [7]) and in assay [3] (setting [5]) were less than 100 nM, less than 100 nM and less than 500 nM, respectively.
`CC(=O)N1CCC(CNc2ncnc(N(Cc3ccc(C(F)(F)F)cc3)C3CC3)c2F)CC1` [Example A11, reference compound]: the concentration for a half-maximal effect (EC50) was less than 100 nM in assay [2] (setting [4]) and less than 500 nM in assay [3] (setting [5]).
Turning to `NC(=O)Cc1ccc(CNc2ncnc(N(Cc3ccc(C(F)(F)F)nc3)C3CC3)c2F)cc1` [Example A83, reference compound], the EC50 was less than 100 nM in assay [2] (setting [6]), less than 100 nM in assay [3] (setting [7]) and less than 500 nM in assay [3] (setting [5]).
On to `NC(=O)Cc1ccc(CNc2ncnc(N(Cc3ccc(C(F)(F)F)cn3)C3CC3)c2F)cc1` [Example A85, reference compound], for which the half-maximal effective concentration (EC50) is less than 100 nM in assay [2] (setting [6]), less than 100 nM in assay [3] (setting [7]) and less than 500 nM in assay [3] (setting [5]).
`OC1(CNc2ncnc(N(Cc3ccc(C(F)(F)F)cc3)C3CC3)c2F)CCC(F)(F)CC1` [Example A44, reference compound]: the 50% effective concentration (EC50) in assay [2] (setting [4]) was less than 100 nM; in assay [3] (setting [7]), less than 100 nM; in assay [3] (setting [5]) it was less than 500 nM.
For the molecule `CC(c1ccc(C(F)(F)F)cc1)N(c1ncnc(NCc2ccc(CC(N)=O)cc2)c1F)C1CC1` (stereo not drawn) [Example A3, reference compound], the 50% effective concentration (EC50) is less than 100 nM in assay [2] (setting [6]), less than 100 nM in assay [3] (setting [7]) and less than 500 nM in assay [3] (setting [5]).
Consider `CN(Cc1cccc(OC(F)(F)F)c1)c1ncnc(NCc2ccc(CC(N)=O)cc2)c1F` [Example A128, reference compound], for which the concentration giving a half-maximal response (EC50) was less than 100 nM in assay [2] (setting [6]), less than 100 nM in assay [3] (setting [7]) and less than 500 nM in assay [3] (setting [5]).
For `NC(=O)Cc1ccc(CNc2ncnc(N(Cc3ccc(C(F)(F)F)cc3)C3CC3)c2F)cc1` [Example A2, reference compound], the values for the EC50 in assay [2] (setting [4]), in assay [3] (setting [7]) and in assay [3] (setting [5]) were less than 100 nM, less than 100 nM and less than 500 nM, respectively.
Consider `NC(=O)C(CO)N1CCC(O)(CNc2ncnc(N(Cc3ccc(C(F)(F)F)cc3)C3CC3)c2F)CC1` (stereo not drawn) [Example A7-68, 2-(4-(((6-(cyclopropyl(4-(trifluoromethyl)benzyl)amino)-5-fluoropyrimidin-4-yl)amino)methyl)-4-hydroxypiperidin-1-yl)-3-hydroxypropanamide], for which, in assay [1] (Homo sapiens, PBMC, 48 h), half-maximal inhibition (IC50) required 21 nM. Moreover, the EC50 in assay [3] (setting [8]) is 20 nM.
On the same counts, the results for `NC(=O)CN1CCC(CNc2ncnc(N(Cc3ccc(C(F)(F)F)cc3)C3CC3)c2F)(c2nnco2)CC1` [Example A7-82, 2-(4-(((6-(Cyclopropyl(4-(trifluoromethyl)benzyl)amino)-5-fluoropyrimidin-4-yl)amino)methyl)-4-(1,3,4-oxadiazol-2-yl)piperidin-1-yl)acetamide] are 150 nM and 8.1 nM.
On the same counts, the results for `NC(=O)CN1CCC(CO)(CNc2ncnc(N(Cc3ccc(C(F)(F)F)cc3)C3CC3)c2F)CC1` [Example A7-51, 2-(4-(((6-(cyclopropyl(4-(trifluoromethyl)benzyl)amino)-5-fluoropyrimidin-4-yl)amino)methyl)-4-(hydroxymethyl)piperidin-1-yl)acetamide] are 7.3 nM and 2.4 nM.
Regarding `CCN(Cc1ccc(C(F)(F)F)cc1)c1ncnc(NC[C@]2(O)CCN(CC(N)=O)C[C@H]2O)c1F` (single isomer, unassigned) [Example D5-01-1-1], the half-inhibitory concentration (IC50) in assay [1] was determined as 1.9 nM. For the same molecule, the “Inhibition of IL-17A (%) at 3 mg/kg” value in the assay on plasma IL-17A came to 92%.
`Cc1cc(C(F)(F)F)ccc1CN(c1ncnc(NCC2CCN(CC(N)=O)CC2)c1F)C1CC1` [Example A7-02, 2-(4-(((6-(cyclopropyl(2-methyl-4-(trifluoromethyl)benzyl)amino)-5-fluoropyrimidin-4-yl)amino)methyl)piperidin-1-yl)acetamide] displayed an IC50 in assay [1] (Homo sapiens, PBMC, 48 h) of 58 nM. In addition, the 50% effective concentration (EC50) in assay [3] (setting [8]) was determined as 76 nM.
As usually defined, the inhibition is the relative decrease from the control value, in per cent. A lower inhibition goes with a weak effect. On to `NC(=O)CN1CC[C@@H](CNc2ncnc(N(Cc3cccc(OC(F)(F)F)c3)C3CC3)c2F)[C@H](O)C1` (racemic) [Example A7-56, rac-2-((3R,4R)-4-(((6-(cyclopropyl(3-(trifluoromethoxy)benzyl)amino)-5-fluoropyrimidin-4-yl)amino)methyl)-3-hydroxypiperidin-1-yl)acetamide], for which, in assay [1] (PBMC, @10 uM, human PBMCs stimulated with CD3/CD28 Dynabeads), at 10 µM the inhibition was 66%. For the same molecule, the figures for the EC50 in assay [3] (setting [8]) and in assay [3] (setting [9]) were 5.3 nM and less than 100 nM, respectively.
As to `NC(=O)CN1CCC(O)(CNc2ncnc(N(Cc3ccc(C(F)(F)F)nc3)C3CC3)c2F)CC1` [Example A7-11, 2-(4-(((6-(cyclopropyl((6-(trifluoromethyl)pyridin-3-yl)methyl)amino)-5-fluoropyrimidin-4-yl)amino)methyl)-4-hydroxypiperidin-1-yl)acetamide], the IC50 in assay [1] (Homo sapiens, PBMC, 48 h) is 200 nM. Moreover, the EC50 is 72 nM in assay [3] (setting [8]) and less than 100 nM in assay [3] (setting [9]).
Turning to `CS(=O)(=O)N1CCC(CNc2ncnc(N(Cc3ccc(C(F)(F)F)cc3)C3CC3)c2F)CC1` [Example A7, reference compound], the figures for the EC50 in assay [2] (setting [4]), in assay [3] (setting [7]) and in assay [3] (setting [5]) were less than 100 nM, less than 100 nM and less than 500 nM, respectively.
For the molecule `NC(=O)Cc1ccc(CNc2ncnc(N(Cc3cnc(C(F)(F)F)nc3)C3CC3)c2F)cc1` [Example A98, reference compound], the values for the concentration giving a half-maximal response (EC50) in assay [2] (setting [6]), in assay [3] (setting [7]) and in assay [3] (setting [5]) were less than 100 nM, less than 100 nM and less than 500 nM, respectively.
`CC(C)(C(N)=O)N1CC[C@@H](CNc2ncnc(N(Cc3ccc(C(F)(F)F)cc3)C3CC3)c2F)[C@H](O)C1` (relative stereo) [Example A7-55, rel-2-((3R,4R)-4-(((6-(cyclopropyl(4-(trifluoromethyl)benzyl)amino)-5-fluoropyrimidin-4-yl)amino)methyl)-3-hydroxypiperidin-1-yl)-2-methylpropanamide] yielded an IC50 in assay [1] (Homo sapiens, PBMC, 48 h) of 4.9 nM. Besides, the EC50 in assay [3] (setting [8]) came to 4.7 nM.

The values above are taken from patent publication US12441704B2, “Compounds active towards nuclear receptors” (NUEVOLUTION A/S, priority 2019, dated 2025).
